Columns and labels:
[1] = test system: skeletal muscles; test: ROS levels in skeletal muscle cells; type: cell-based; details: different disease conditions, FIG. 17 C
Excerpt: (§1) Oxidative stress mediated by both ROS and RNS (NO) is known to impair mitochondrial function and induced insulin resistance in skeletal muscle (FIG. 17). Furthermore, it is also known that metabolic overload and inflammatory signal drives oxidative stress in skeletal muscles.

[2] = test system: 3T3F442A cells; test: Secreted adiponectin in adipocytes; type: cell-based; details: inflammation (inf) plus metabolic overload (pal), FIG. 4
Excerpt: Adiponectin is secreted by insulin sensitive mature adipocytes and positively modulates glucose and lipid metabolism in non adipose tissues such as liver, muscle etc. Increased adiponectin secretion is desirable and is correlated with whole body insulin sensitivity. Inflammation (inf) in the presence of metabolic overload (pal) caused a decrease in adiponectin secretion in 3T3F442A cells.

[3] = test system: 3T3 L1 cells; test: Insulin sensitivity in adipocytes (Western blot p-Akt Thr-308 / total Akt); type: cell-based; details: glucose and palmitate 48 hours, then 10 and 100 nM insulin 15 min, FIG. 2
Experimental: This was ascertained by treating 3T3 L1 cells with glucose and palmitate (GP) for 48 hours in the presence and absence of TAK-1 inhibitor. Cells were then stimulated with 10 and 100 nM insulin (I) for 15 min, following which they were taken up for Western blot analysis for p-Akt ([…]) and total Akt.

[4] = test system: muscle cells; test: Mitochondrial activity of muscle cells (reduction of MTT); type: cell-based; details: inflammation and oxidative stress conditions, FIG. 18
[5] = test system: rat primary hepatocytes; test: Reactive oxygen species in rat primary hepatocytes; type: cell-based; details: glucose, palmitate and inflammatory cytokines, FIG. 8
Excerpt: Reactive oxygen species (ROS) are generated as metabolic byproducts, particularly as a byproduct of oxidative phosphorylation. Under normal conditions, the levels of ROS generated are low and tightly controlled, and can function as signaling intermediates.

[6] = test system: skeletal muscle cells; test: Mitochondrial biogenesis in skeletal muscle cells (mtND1, mitochondrial DNA copy number, MEF2C); type: cell-based; details: FIG. 18
[7] = test system: IkB; test: IkB level in skeletal muscle cells; type: cell-based; details: skeletal muscle cells under inflammatory conditions (Infl), FIG. 14
Excerpt: (§2) Taken together, TAK-1 inhibition could lead to decreased JNK and NFkB signaling under metabolic overload and inflammation.

[8] = test system: 3T3F442A pre adipocytes; test: Adipogenesis (TG levels) under inflammatory cytokines; type: cell-based; details: differentiation with inflammatory cytokines, FIG. 3
Experimental: Experiments were performed in which inflammatory cytokines were added to 3T3F442A pre adipocytes (UD) and TG levels were estimated as a measure of adipogenesis. Differentiation was carried out in the presence and absence of TAK-1 inhibitor.

[9] = test system: JNK; test: JNK phosphorylation under inflammatory conditions in adipocytes; type: cell-based; details: in response to inflammatory cytokine, FIG. 1
[10] = test system: JNK; test: JNK activation in skeletal muscle cells; type: cell-based
Excerpt: as §2

[11] = test system: rat islets; test: Glucose stimulated insulin secretion (GSIS) under inflammatory conditions; type: cell-based; details: inflammatory condition (Infl), FIG. 25
[12] = test system: insulin gene, PDX1, IL1b, glucokinase (GCK) and Glut2 (slc2a2); test: Gene expression in islet beta cells under inflammatory conditions; type: cell-based, rat
[13] = test system: C2C12 myotubes; test: NO release from muscle cells; type: cell-based
Excerpt: as §1

[14] = metabolic overload or inflammation

## COc1cc(O)c2c(c1)/C=C/C[C@H](O)[C@H](O)C(=O)/C=C\C[C@H](C)OC2=O [(5Z)-7-Oxozeaenol]
[1]
  ROS levels: reduced
[2]
  decrease in adiponectin secretion: partially inhibited
[3]
  insulin sensitivity (p-Akt Thr-308 / total Akt): restored insulin sensitivity
[4]
  mitochondrial activity (reduction of MTT): increase mitochondrial activity
[5]
  intracellular ROS levels: reduced ROS levels
[6]; [14]
  mitochondrial DNA copy number: increased mitochondrial DNA copy number
  muscle enriched transcription factor (MEF2C): increased
[6]; skeletal muscle cells
  expression of mitochondrial genes such as mtND1: up-regulate
[7]
  IkB level (NFkB pathway): increasing IkB level
[8]
  TG levels as a measure of adipogenesis: partially restored
[9]
  activation of JNK: decreased activation of JNK
[10]; in response to inflammatory cytokines, FIG. 13
  activation of JNK: decreased activation of JNK
[10]; in response to metabolic stress (palmitate overload)
  activation of JNK: reduce activation of JNK
[11]
  glucose stimulated insulin secretion (GSIS): restored GSIS
[12]; rat islet, FIG. 27
  inflammation induced IL1b expression: reduce inflammation induced IL1b expression
[12]; rat islets, under inflammation, FIG. 26
  insulin gene and PDX1 expression: up-regulate
[13]; C2C12 myotubes, FIG. 17 A
  inflammation induced NO release: reduced inflammation induced NO release from C2C12 myotubes in a dose dependent manner
[13]; skeletal muscles, metabolic overload (high glucose and palmitate) and inflammatory conditions, FIG. 17 B
  NO release: reduced NO release
